{
  "source": "ChEMBL document CHEMBL1201862",
  "about": "“PubChem BioAssay data set” (2004)",
  "assay_in_all_cases": "NCI anticancer screen, dose series, 48 h",
  "key": {"[1]": {"test_system": "T47D"}, "[2]": {"test_system": "MOLT-4"}, "[3]": {"test_system": "Malme-3M"}, "[4]": {"test_system": "SR"}, "[5]": {"test_system": "PC-3"}, "[6]": {"test_system": "A549"}, "[7]": {"test_system": "SF-295"}, "[8]": {"test_system": "COLO 205"}, "[9]": {"test_system": "HOP-62"}, "[10]": {"test_system": "IGROV-1"}, "[11]": {"test_system": "NCI-H460"}, "[12]": {"test_system": "MDA-MB-231"}, "[13]": {"test_system": "EKVX"}, "[14]": {"test_system": "SN12C"}, "[15]": {"test_system": "HCT-15"}, "[16]": {"test_system": "Hs-578T"}, "[17]": {"test_system": "SF-268"}, "[18]": {"test_system": "SNB-75"}, "[19]": {"test_system": "SK-MEL-5"}, "[20]": {"test_system": "OVCAR-3"}, "[21]": {"test_system": "OVCAR-8"}, "[22]": {"test_system": "MDA-N"}, "[23]": {"test_system": "SW-620"}, "[24]": {"test_system": "DU-145"}, "[25]": {"test_system": "OVCAR-4"}, "[26]": {"test_system": "SK-OV-3"}, "[27]": {"test_system": "SK-MEL-2"}, "[28]": {"test_system": "NCI/ADR-RES"}, "[29]": {"test_system": "786-0"}, "[30]": {"test_system": "ACHN"}, "[31]": {"test_system": "M14"}, "[32]": {"test_system": "UACC-257"}, "[33]": {"test_system": "HCT-116"}, "[34]": {"test_system": "UACC-62"}, "[35]": {"test_system": "NCI-H522"}, "[36]": {"test_system": "HOP-92"}, "[37]": {"test_system": "LOX IMVI"}, "[38]": {"test_system": "HT-29"}},
  "note": "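Values below derive from 48-hour exposures of cells grown in 96-well plates, with endpoints linearly interpolated between the two concentrations bracketing the appropriate inhibition level. The concentration for 50% growth inhibition is given as GI50.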 The source made the active and inactive calls. Cut-off read from the data, not from the text of the source: active = GI50 up to about 1.1 µM and inactive = higher.",
  "data": [
    {"smiles": "CC1(C)OC2C(COC(c3ccccc3)(c3ccccc3)c3ccccc3)OC(c3c[nH]c4c(N)ncnc34)C2O1", "note": "(stereo not drawn)", "values": [
      {"measurement": "GI50", "setting": "[1]", "value": "3.92 µM (inactive)"},
      {"measurement": "GI50", "setting": "[2]", "value": "1.89 µM (inactive)"},
      {"measurement": "GI50", "setting": "[3]", "value": "4.92 µM (inactive)"},
      {"measurement": "GI50", "setting": "[4]", "value": "4.06 µM (inactive)"},
      {"measurement": "GI50", "setting": "[5]", "value": "1.86 µM (inactive)"},
      {"measurement": "GI50", "setting": "[6]", "value": "3.18 µM (inactive)"},
      {"measurement": "GI50", "setting": "[7]", "value": "3 µM (inactive)"},
      {"measurement": "GI50", "setting": "[8]", "value": "10.7 µM (inactive)"},
      {"measurement": "GI50", "setting": "[9]", "value": "4.86 µM (inactive)"},
      {"measurement": "GI50", "setting": "[10]", "value": "4.49 µM (inactive)"},
      {"measurement": "GI50", "setting": "[11]", "value": "3.33 µM (inactive)"},
      {"measurement": "GI50", "setting": "[12]", "value": "13.1 µM (inactive)"},
      {"measurement": "GI50", "setting": "[13]", "value": "8.61 µM (inactive)"},
      {"measurement": "GI50", "setting": "[14]", "value": "3.92 µM (inactive)"},
      {"measurement": "GI50", "setting": "[15]", "value": 4.06, "unit": "µM"},
      {"measurement": "GI50", "setting": "[16]", "value": "5.73 µM (inactive)"},
      {"measurement": "GI50", "setting": "[17]", "value": "5.82 µM (inactive)"},
      {"measurement": "GI50", "setting": "[18]", "value": "7.48 µM (inactive)"},
      {"measurement": "GI50", "setting": "[19]", "value": "1.58 µM (inactive)"},
      {"measurement": "GI50", "setting": "[20]", "value": "3.13 µM (inactive)"},
      {"measurement": "GI50", "setting": "[21]", "value": "5.77 µM (inactive)"},
      {"measurement": "GI50", "setting": "[22]", "value": "3.16 µM (inactive)"},
      {"measurement": "GI50", "setting": "[23]", "value": "3.25 µM (inactive)"},
      {"measurement": "GI50", "setting": "[24]", "value": "5.6 µM (inactive)"},
      {"measurement": "GI50", "setting": "[25]", "value": "7.78 µM (inactive)"},
      {"measurement": "GI50", "setting": "[26]", "value": "4.86 µM (inactive)"},
      {"measurement": "GI50", "setting": "[27]", "value": "4.89 µM (inactive)"},
      {"measurement": "GI50", "setting": "[28]", "value": "9.48 µM (inactive)"},
      {"measurement": "GI50", "setting": "[29]", "value": "1.87 µM (inactive)"},
      {"measurement": "GI50", "setting": "[30]", "value": "2.67 µM (inactive)"},
      {"measurement": "GI50", "setting": "[31]", "value": "2.76 µM (inactive)"},
      {"measurement": "GI50", "setting": "[32]", "value": "4.68 µM (inactive)"},
      {"measurement": "GI50", "setting": "[33]", "value": "4.67 µM (inactive)"},
      {"measurement": "GI50", "setting": "[34]", "value": "1.31 µM (inactive)"},
      {"measurement": "GI50", "setting": "[35]", "value": "4.53 µM (inactive)"},
      {"measurement": "GI50", "setting": "[36]", "value": "5.62 µM (inactive)"},
      {"measurement": "GI50", "setting": "[37]", "value": "1.6 µM (inactive)"},
      {"measurement": "GI50", "setting": "[38]", "value": "2.56 µM (inactive)"}
    ]}
  ]
}
